Source: US20250170104A1, “INHIBITORS OF PSEUDOMONAS AERUGINOSA VIRULENCE FACTOR Lasß” (priority 2022, published 2025)

molecular target: LasB (Pseudomonas aeruginosa (strain ATCC 15692 / DSM 22644 / CIP 104116 / JCM 14847 / LMG 12228 / 1C / PRS 101 / PAO1), UniProt P14756); assay: In vitro LasB activity assay (fluorogenic substrate); assay type: biochemical; conditions: LasB 0.3 nM, substrate 150 μM, mean ± SD
Method: The LasB activity assay was performed as described previously (Nishino N, Powers J C. Pseudomonas aeruginosa elastase. Development of a new substrate, inhibitors, and an affinity ligand. J Biol Chem. 1980 Apr. 25; 255(8):3482-6) using the fluorogenic substrate 2-Aminobenzoyl-L-Alanyl-Glycyl-L-Leucyl-L-Alanyl-para-Nitro-Benzyl-Amide, purchased from Peptides International (Louisville, KY, USA) and vivitide, LLC (Gardner, MA, USA).
Fluorescence intensity was measured for 60 min at 37° C. in black 384-well microtiter plates (Greiner BioOne, Kremsmünster, Austria) using a CLARIOstar microplate reader (BMG Labtech, Ortenberg, Germany) with an excitation wavelength of […] and an emission wavelength of 415±20 nm. The assay was performed in a final volume of 50 μL of assay buffer (50 mM Tris, pH 7.2, 2.5 mM CaCl2), 0.075% Pluronic F-127, 5% DMSO) containing LasB at a final concentration of […] 0.3 nM and the substrate at 150 μM. Before substrate addition, compounds were preincubated with the enzyme at 37° C. for 15 min. Experiments were performed in duplicates and repeated for at least two times. Blank controls without enzyme were performed. After blank subtraction, the slope of samples containing inhibitors (v) was divided by the slope of a simultaneously started uninhibited enzymatic reaction (v0). IC50 values were determined with nonlinear regression using GraphPad Prism 5 (Graph Pad Software, San Diego, CA, USA) and are given as mean values ±standard deviation (SD). The slope factor was constrained to 1.

Chain of LasB (P14756 198-498): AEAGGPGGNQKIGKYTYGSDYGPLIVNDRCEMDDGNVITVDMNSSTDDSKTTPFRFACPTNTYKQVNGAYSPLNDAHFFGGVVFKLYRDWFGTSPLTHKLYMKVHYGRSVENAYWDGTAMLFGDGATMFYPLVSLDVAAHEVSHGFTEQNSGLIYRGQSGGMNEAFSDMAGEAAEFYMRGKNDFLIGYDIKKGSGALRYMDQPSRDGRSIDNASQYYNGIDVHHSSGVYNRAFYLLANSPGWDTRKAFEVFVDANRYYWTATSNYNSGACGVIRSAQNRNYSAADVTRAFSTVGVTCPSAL

SMILES	IC50 [nM]
CC(C)CCC(C(=O)NO)C(=O)Nc1ccc(Cn2cc(CNS(=O)(=O)c3ccc(I)cc3)nn2)cc1 (stereo not shown) [Compound 215, 2-(hydroxycarbamoyl)-N-[4-[[4-[[(4-iodophenyl)sulfonylamino]methyl]triazol-1-yl]methyl]phenyl]-5-methyl-hexanamide]	48.5 ± 1.4
CC(=O)Nc1ccccc1OCc1cn(Cc2ccc(NC(=O)C(CC(C)C)C(=O)NO)cc2)nn1 (stereo not shown) [Hit L5, N-[4-[[4-[(2-Acetamidophenoxy)methyl]triazol-1-yl]methyl]phenyl]-2-(hydroxycarbamoyl)-4-methyl-pentanamide]	13.8 ± 0.3
CC(C)CC(C(=O)NO)C(=O)Nc1ccc(Cn2cc(CN3C(=O)c4ccccc4S3(=O)=O)nn2)cc1 (stereo not shown) [Compound 139, 2-(Hydroxycarbamoyl)-4-methyl-N-[4-[[4-[(1,1,3-trioxo-1,2-benzothiazol-2-yl)methyl]triazol-1-yl]methyl]phenyl]pentanamide]	19.3 ± 0.6
COC(=O)c1ccc(S(=O)(=O)NCc2cn(Cc3ccc(NC(=O)C(CC(C)C)C(=O)NO)cc3)nn2)cc1 (stereo not shown) [Compound 204, methyl 4-[[1-[[4-[[2-(hydroxycarbamoyl)-4-methyl-pentanoyl]amino]phenyl]methyl]triazol-4-yl]methylsulfamoyl]benzoate]	13 ± 0.4
CC(C)CC(C(=O)NO)C(=O)Nc1ccc(Cn2cc(CNS(=O)(=O)c3ccc(NC(=O)OC(C)(C)C)cc3)nn2)cc1 (stereo not shown) [Compound 208, tert-butyl N-[4-[[1-[[4-[[2-(hydroxycarbamoyl)-4-methyl-pentanoyl]amino]phenyl]methyl]triazol-4-yl]methylsulfamoyl]phenyl]carbamate]	4.2 ± 0.2
CC(C)CC(C(=O)NO)C(=O)Nc1ccc(Cn2cc(CNc3ccc(I)cc3)nn2)cc1 (stereo not shown) [Compound 134, 2-(Hydroxycarbamoyl)-N-[4-[[4-[(4-iodoanilino)methyl]triazol-1-yl]methyl]phenyl]-4-methyl-pentanamide]	8.4 ± 0.5
CC(C)CC(C(=O)NO)C(=O)Nc1ccc(Cn2cc(COc3ccc(Cl)cc3)nn2)cc1 (stereo not shown) [Compound 135, N-[4-[[4-[(4-Chlorophenoxy)methyl]triazol-1-yl]methyl]phenyl]-2-(hydroxycarbamoyl)-4-methyl-pentanamide]	9.8 ± 0.3
CC(C)CC(C(=O)NO)C(=O)Nc1ccc(Cn2cc(CNC(=O)OC(C)(C)C)nn2)cc1 (stereo not shown) [Compound 133, Tert-butyl N-[[1-[[4-[[2-(hydroxycarbamoyl)-4-methyl-pentanoyl]amino]phenyl]methyl]triazol-4-yl]methyl]carbamate]	9.8 ± 0.4
COCCOc1ccc(S(=O)(=O)NCc2cn(Cc3ccc(NC(=O)C(CC(C)C)C(=O)NO)cc3)nn2)cc1 (stereo not shown) [Compound 205, 2-(hydroxycarbamoyl)-N-[4-[[4-[[[4-(2-methoxyethoxy)phenyl]sulfonylamino]methyl]triazol-1-yl]methyl]phenyl]-4-methyl-pentanamide]	29.5 ± 0.7
CC(C)CC(C(=O)NO)C(=O)Nc1ccc(Cn2nncc2CNS(=O)(=O)c2ccc(I)cc2)cc1 (stereo not shown) [Compound 190, 2-(Hydroxycarbamoyl)-N-[4-[[5-[[(4-iodophenyl)sulfonylamino]methyl]triazol-1-yl]methyl]phenyl]-4-methyl-pentanamide]	7.8 ± 0.1
CC(C)CC(C(=O)NO)C(=O)Nc1ccc(Cn2cc(CNS(=O)(=O)c3ccc(C(C)C)cc3)nn2)cc1 (stereo not shown) [Compound 207, 2-(hydroxycarbamoyl)-N-[4-[[4-[[(4-isopropylphenyl)sulfonylamino]methyl]triazol-1-yl]methyl]phenyl]-4-methyl-pentanamide]	3.1 ± 0.1
CC(C)CC(C(=O)NO)C(=O)Nc1ccc(Cn2cc(CNS(=O)(=O)C3CCCCC3)nn2)cc1 (stereo not shown) [Compound 168, N-[4-[[4-[(Cyclohexylsulfonylamino)methyl]triazol-1-yl]methyl]phenyl]-2-(hydroxycarbamoyl)-4-methyl-pentanamide]	2.7 ± 0.2
CC(C)CC(C(=O)NO)C(=O)Nc1ccc(Cn2cc(C3CSCN3C(=O)c3ccc(F)cc3)nn2)cc1 (stereo not shown) [Hit L4, N-[4-[[4-[3-(4-Fluorobenzoyl)thiazolidin-4-yl]triazol-1-yl]methyl]phenyl]-2-(hydroxycarbamoyl)-4-methyl-pentanamide]	6.6 ± 0.2
CC(C)CC(C(=O)NO)C(=O)Nc1ccc(Cn2cc(CNS(=O)(=O)c3ccc(N)cc3)nn2)cc1 (stereo not shown) [Compound 210, N-[4-[[4-[[(4-aminophenyl)sulfonylamino]methyl]triazol-1-yl]methyl]phenyl]-2-(hydroxycarbamoyl)-4-methyl-pentanamide]	7.7 ± 0.2
CC(=O)c1ccc(S(=O)(=O)NCc2cn(Cc3ccc(NC(=O)C(CC(C)C)C(=O)NO)cc3)nn2)cc1 (stereo not shown) [Compound 203, N-[4-[[4-[[(4-acetylphenyl)sulfonylamino]methyl]triazol-1-yl]methyl]phenyl]-2-(hydroxycarbamoyl)-4-methyl-pentanamide]	7.9 ± 0.2
CC(C)CC(C(=O)NO)C(=O)Nc1ccc(Cn2cc(-c3ccc(I)cc3)nn2)cc1 (stereo not shown) [Compound 138, 2-(Hydroxycarbamoyl)-N-[4-[[4-(4-iodophenyl)triazol-1-yl]methyl]phenyl]-4-methyl-pentanamide]	37.8 ± 2.9
CC(C)CC(C(=O)NO)C(=O)Nc1ccc(Cn2cc(CN)nn2)cc1 (stereo not shown) [Compound 140, N-[4-[[4-(Aminomethyl)triazol-1-yl]methyl]phenyl]-2-(hydroxycarbamoyl)-4-methyl-pentanamide]	55.9 ± 2.3
CC(C)CC(C(=O)NO)C(=O)Nc1ccc(Cn2cc(CNS(=O)(=O)CC34CCC(CC3=O)C4(C)C)nn2)cc1 (stereo not shown) [Hit L2, N-[4-[[4-[[(7,7-Dimethyl-2-oxo-norbornan-1-yl)methylsulfonylamino]methyl]triazol-1-yl]methyl]phenyl]-2-(hydroxycarbamoyl)-4-methyl-pentanamide]	5.3 ± 0.1
CC(C)CC(C(=O)NO)C(=O)Nc1ccc(Cn2cc(CNS(=O)(=O)c3ccccc3)nn2)cc1 (stereo not shown) [Compound 167, N-[4-[[4-(Benzenesulfonamidomethyl)triazol-1-yl]methyl]phenyl]-2-(hydroxycarbamoyl)-4-methyl-pentanamide]	5.5 ± 0.3
CC(C)CC(C(=O)NO)C(=O)Nc1ccc(Cn2nncc2CNS(=O)(=O)c2ccc(F)cc2)cc1 (stereo not shown) [Compound 191, N-[4-[[5-[[(4-Fluorophenyl)sulfonylamino]methyl]triazol-1-yl]methyl]phenyl]-2-(hydroxycarbamoyl)-4-methyl-pentanamide]	7.9 ± 0.1
CC(C)CC(C(=O)NO)C(=O)Nc1ccc(Cn2cc(Cc3ccc(Cl)cc3)nn2)cc1 (stereo not shown) [Compound 137, N-[4-[[4-[(4-Chlorophenyl)methyl]triazol-1-yl]methyl]phenyl]-2-(hydroxycarbamoyl)-4-methyl-pentanamide]	16.9 ± 1.3
CC(C)CC(C(=O)NO)C(=O)Nc1ccc(Cn2cc(CNS(=O)(=O)c3cccc(Cl)c3)nn2)cc1 (stereo not shown) [Compound 164, N-[4-[[4-[[(3-Chlorophenyl)sulfonylamino]methyl]triazol-1-yl]methyl]phenyl]-2-(hydroxycarbamoyl)-4-methyl-pentanamide]	2.4 ± 0.1
CC(C)CC(C(=O)NO)C(=O)Nc1ccc(Cn2nncc2CNS(=O)(=O)CC(C)C)cc1 (stereo not shown) [Compound 192, 2-(Hydroxycarbamoyl)-N-[4-[[5-[(isobutylsulfonylamino)methyl]triazol-1-yl]methyl]phenyl]-4-methyl-pentanamide]	6.8 ± 0.1
CC(C)CC(C(=O)NO)C(=O)Nc1ccc(Cn2cc(CNS(=O)(=O)c3ccccc3Cl)nn2)cc1 (stereo not shown) [Compound 163, N-[4-[[4-[[(2-Chlorophenyl)sulfonylamino]methyl]triazol-1-yl]methyl]phenyl]-2-(hydroxycarbamoyl)-4-methyl-pentanamide]	4.3 ± 0.1
CC(C(=O)NO)C(=O)Nc1ccc(Cn2cc(CNS(=O)(=O)c3ccc(I)cc3)nn2)cc1 (stereo not shown) [Compound 217, 3-(hydroxyamino)-N-[4-[[4-[[(4-iodophenyl)sulfonylamino]methyl]triazol-1-yl]methyl]phenyl]-2-methyl-3-oxo-propanamide]	278 ± 9.7
CC(C)CC(C(=O)NO)C(=O)Nc1ccc(Cn2cc(CNC(=O)c3ccc(I)cc3)nn2)cc1 (stereo not shown) [Compound 132, N-[[1-[[4-[[2-(Hydroxycarbamoyl)-4-methyl-pentanoyl]amino]phenyl]methyl]triazol-4-yl]methyl]-4-iodo-benzamide]	22.8 ± 0.1
CC(C)CC(C(=O)NO)C(=O)Nc1ccc(Cn2nncc2CNC(=O)OC(C)(C)C)cc1 (stereo not shown) [Compound 185, tert-butyl N-[[3-[[4-[[2-(hydroxycarbamoyl)-4-methyl-pentanoyl]amino]phenyl]methyl]triazol-4-yl]methyl]carbamate]	6.5 ± 0.2
CC(C)CC(C(=O)NO)C(=O)Nc1ccc(Cn2cc(CNS(=O)(=O)Cc3ccc(Cl)cc3)nn2)cc1 (stereo not shown) [Compound 166, N-[4-[[4-[[(4-Chlorophenyl)methylsulfonylamino]methyl]triazol-1-yl]methyl]phenyl]-2-(hydroxycarbamoyl)-4-methyl-pentanamide]	5.2 ± 0.3
